Measurements published in patent US11912682B2, “Isoindolinone compounds” (Monte Rosa Therapeutics, Inc., priority 2021, dated 2024).
Read-outs that look alike come from different tables or passages of the source.

Tests used:
[1] = biological target: Full length wild-type cereblon CRBN (Homo sapiens (Human), UniProt Q96SW2); assay: fluorescence polarization (FP) assay, cereblon binding
Method in brief: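 Full-length wild-type CRBN (80.0 nM as dispensed) preincubated 30 min at room temperature with compound in HEPES pH 8.0, NaCl, TCEP, 0.05% Tween 20.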

IKZF1 (Ikaros) = IKZF1 (Ikaros) (Homo sapiens (Human), UniProt Q13422); assay: selectivity by Western blot in MM1S cells, IKZF1; type: cell-based; design: key to IKZF1 degradation: A represents a no degradation observed at 30 μM; B represents trace degradation at 30 μM (below 20%); C represents weak degradation at 30 μM (below 50%); D represents degradation at 30 μM (>90%); E represents degradation at 3 μM (>90%); F represents degradation at 0.3 μM (>90%); conditions: for IKZF1 degradation: MM1S cells, 6 hours, 0.3, 3 and 30 μM
Experimental: (§1) MM1S cells were purchased from ATCC (cat. Number CRL-2974), sub-cultured in 90% RPMI 1640 with 10% FBS, supplemented with 1× P/S and incubated at 37° C., 5% CO2. Compounds were stored as 10 mM DMSO stock. For the assay, MM1S cells (3 million cells/well) were plated in 6-well plates and incubated over night. Cells were treated with respective compounds using a serial dilution: 0.3 μM, 3 μM and 30 μM as well as a vehicle only (DMSO) control for 6 hours. Media with suspension cells was subsequently transferred to 15 mL conical tubes, wells rinsed twice with ice-cold PBS and merged with cell suspension in respective 15 mL conical tube. Cells were spinned down, supernatant aspirated, pellets resuspended in ice-cold PBS and transferred to microtubes. Cells were spinned down, supernatant aspirated and pellets resuspended in 120 μL RIPA lysis buffer supplemented with protease and phosphatase inhibitors. Cell lysates were incubated on ice for 20 minutes followed by centrifugation at >20,000 xg for 5 min. Supernatants were transferred to fresh microtubes and stored at −80° C. Total protein concentration was determined using a BCA assay with a BSA standard curve and concentration of all samples was adjusted to 1 mg/mL. 25 μL 4× LDS sample buffer supplemented with 100 mM DTT was added to 75 μL sample. Samples were centrifuged (8,000 xg, 1 min) and incubated at 95° C. for 5 min followed by another centrifugation step (8,000 xg, 1 min). 20 μL of each sample was loaded on a 4-12% gel alongside a protein molecular weight marker. Gels were run in the presence of MOPS buffer at 80 Volts for 30 min, followed by 120 Volts for 1.5 h and proteins subsequently transferred onto nitrocellulose membranes at 20 Volts for 7 min using an iBlot2 Gel Transfer Device. Membranes were then cut horizontally into two pieces, covering 80-50 kDa and 50-25 kDa. Blocking the membranes was performed by gently shaking in 5% (w/v) skim milk in TSB-T for 1 hr at room temperature. All primary antibodies were used at a 1/1000 in 5% (w/v) BSA dissolved in TBST and incubated with membranes over night at 4° C. Anti-IKZF1 (Ikaros; D6N9Y; 14859S), anti-IKZF3 (Aiolos; D1C1E; 15103S) antibodies were purchased from Cell Signalling Technology, anti-ZFP91 antibody from Bethyl laboratories, anti-GSPT1 from Sigma Aldrich (HPA052488) and anti CK1alpha from AbCam (ab206652). After three washes with 1× TBST for 5 min, HRP-coupled secondary antibodies diluted in 5% (w/v) BSA/TBST (Goat Anti-Rb IgG, dil. 1/10,000; Goat Anti-Mouse IgG, dil. 1/5000) were added for 1 hr at room temperature. After three washes with 1× TBST (5 minutes each), membranes were incubated with ECL reagent for 1 min at room temperature. Chemiluminescence signals were then detected using a LAS-4000 system with default settings and signals quantified using Image Studio Lite software (version 5.2). Membrane parts previously incubated with antibody against CK1alpha were stripped off antibodies by incubating with stripping buffer for 30 minutes followed by three washed with TBST (5 min each), blocking with 5% (w/v) skim milk for 1 hr, and incubation with primary antibody against GAPDH overnight at 4° C. Subsequent washes, incubation with secondary antibody and signal acquisition were performed as described above.

IKZF3 (Aiolos) = IKZF3 (Aiolos) (Homo sapiens (Human), UniProt Q9UKT9); assay: selectivity by Western blot in MM1S cells, IKZF3; type: cell-based; design: key to IKZF3 degradation: A represents a no degradation observed at 30 μM; B represents trace degradation at 30 μM (below 20%); C represents weak degradation at 30 μM (below 50%); D represents degradation at 30 μM (>90%); E represents degradation at 3 μM (>90%); F represents degradation at 0.3 μM (>90%); conditions: for IKZF3 degradation: MM1S cells, 6 hours, 0.3, 3 and 30 μM
Experimental: as §1

GSPT1 = GSPT1 (Homo sapiens (Human), UniProt P15170+Q96SW2); assay: selectivity by Western blot in MM1S cells, GSPT1; type: cell-based; conditions: for GSPT1 degradation: MM1S cells, 6 hours, 0.3, 3 and 30 μM
Experimental: as §1

[2] = highest concentration tested of 30 μM

Chain of IKZF3 (Aiolos) (Q9UKT9 whole entry, looked up): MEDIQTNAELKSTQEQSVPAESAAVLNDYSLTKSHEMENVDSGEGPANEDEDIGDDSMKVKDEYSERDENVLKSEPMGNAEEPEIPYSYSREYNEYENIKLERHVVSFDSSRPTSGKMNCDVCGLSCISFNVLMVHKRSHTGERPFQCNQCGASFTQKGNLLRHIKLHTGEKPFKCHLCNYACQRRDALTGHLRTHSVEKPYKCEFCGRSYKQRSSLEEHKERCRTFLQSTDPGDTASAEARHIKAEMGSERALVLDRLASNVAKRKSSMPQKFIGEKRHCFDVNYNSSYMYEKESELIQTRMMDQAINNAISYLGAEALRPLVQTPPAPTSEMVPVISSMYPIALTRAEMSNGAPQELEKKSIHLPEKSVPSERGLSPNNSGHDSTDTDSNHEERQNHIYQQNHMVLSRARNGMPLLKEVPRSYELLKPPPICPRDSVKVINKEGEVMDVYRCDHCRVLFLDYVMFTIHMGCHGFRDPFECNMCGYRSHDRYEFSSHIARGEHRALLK
Chain of IKZF1 (Ikaros) (Q13422 whole entry, looked up): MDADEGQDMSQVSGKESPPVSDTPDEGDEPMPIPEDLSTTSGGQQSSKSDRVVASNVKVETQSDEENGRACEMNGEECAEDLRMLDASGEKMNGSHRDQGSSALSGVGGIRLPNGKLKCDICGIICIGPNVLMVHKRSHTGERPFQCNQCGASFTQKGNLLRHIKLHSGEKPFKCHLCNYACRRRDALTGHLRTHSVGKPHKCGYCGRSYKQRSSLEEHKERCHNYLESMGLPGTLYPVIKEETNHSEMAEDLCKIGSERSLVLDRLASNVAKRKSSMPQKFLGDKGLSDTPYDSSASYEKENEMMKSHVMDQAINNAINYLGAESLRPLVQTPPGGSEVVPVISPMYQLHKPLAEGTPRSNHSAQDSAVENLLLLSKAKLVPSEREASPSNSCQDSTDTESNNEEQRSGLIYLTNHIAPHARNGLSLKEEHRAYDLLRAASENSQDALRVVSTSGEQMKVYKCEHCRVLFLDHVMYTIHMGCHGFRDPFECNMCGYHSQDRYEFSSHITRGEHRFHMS
Chain of Full length wild-type cereblon CRBN (Q96SW2 whole entry): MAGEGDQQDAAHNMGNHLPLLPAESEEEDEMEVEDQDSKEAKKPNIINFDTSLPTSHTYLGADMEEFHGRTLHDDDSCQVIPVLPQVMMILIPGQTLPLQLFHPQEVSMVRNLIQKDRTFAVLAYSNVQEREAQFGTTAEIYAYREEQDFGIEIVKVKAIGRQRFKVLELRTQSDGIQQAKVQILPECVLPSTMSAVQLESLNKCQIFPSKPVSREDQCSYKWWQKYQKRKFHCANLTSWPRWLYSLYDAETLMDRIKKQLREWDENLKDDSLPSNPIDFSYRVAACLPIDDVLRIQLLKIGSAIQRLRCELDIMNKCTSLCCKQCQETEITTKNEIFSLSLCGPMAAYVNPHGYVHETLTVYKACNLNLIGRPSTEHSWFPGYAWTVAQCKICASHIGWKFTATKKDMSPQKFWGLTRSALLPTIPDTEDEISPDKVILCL
Chain of GSPT1 (P15170 whole entry, looked up): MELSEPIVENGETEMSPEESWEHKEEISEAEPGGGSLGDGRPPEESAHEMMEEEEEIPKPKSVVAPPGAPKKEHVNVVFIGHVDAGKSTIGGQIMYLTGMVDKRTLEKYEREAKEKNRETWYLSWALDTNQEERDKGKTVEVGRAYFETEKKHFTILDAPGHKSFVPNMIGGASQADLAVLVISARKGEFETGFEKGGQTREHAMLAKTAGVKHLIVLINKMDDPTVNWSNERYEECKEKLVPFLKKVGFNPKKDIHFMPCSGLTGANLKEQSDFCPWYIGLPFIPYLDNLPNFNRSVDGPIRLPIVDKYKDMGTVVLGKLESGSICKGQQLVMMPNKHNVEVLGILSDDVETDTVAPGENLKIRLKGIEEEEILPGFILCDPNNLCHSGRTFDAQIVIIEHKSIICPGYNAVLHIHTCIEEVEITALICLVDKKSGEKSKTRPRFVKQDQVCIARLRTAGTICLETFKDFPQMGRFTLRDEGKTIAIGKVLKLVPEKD
Chain of GSPT1 (Q96SW2 whole entry, looked up): as the sequence (Q96SW2 whole entry) above
Chain of GSPT1 (Q16531 whole entry partner, looked up): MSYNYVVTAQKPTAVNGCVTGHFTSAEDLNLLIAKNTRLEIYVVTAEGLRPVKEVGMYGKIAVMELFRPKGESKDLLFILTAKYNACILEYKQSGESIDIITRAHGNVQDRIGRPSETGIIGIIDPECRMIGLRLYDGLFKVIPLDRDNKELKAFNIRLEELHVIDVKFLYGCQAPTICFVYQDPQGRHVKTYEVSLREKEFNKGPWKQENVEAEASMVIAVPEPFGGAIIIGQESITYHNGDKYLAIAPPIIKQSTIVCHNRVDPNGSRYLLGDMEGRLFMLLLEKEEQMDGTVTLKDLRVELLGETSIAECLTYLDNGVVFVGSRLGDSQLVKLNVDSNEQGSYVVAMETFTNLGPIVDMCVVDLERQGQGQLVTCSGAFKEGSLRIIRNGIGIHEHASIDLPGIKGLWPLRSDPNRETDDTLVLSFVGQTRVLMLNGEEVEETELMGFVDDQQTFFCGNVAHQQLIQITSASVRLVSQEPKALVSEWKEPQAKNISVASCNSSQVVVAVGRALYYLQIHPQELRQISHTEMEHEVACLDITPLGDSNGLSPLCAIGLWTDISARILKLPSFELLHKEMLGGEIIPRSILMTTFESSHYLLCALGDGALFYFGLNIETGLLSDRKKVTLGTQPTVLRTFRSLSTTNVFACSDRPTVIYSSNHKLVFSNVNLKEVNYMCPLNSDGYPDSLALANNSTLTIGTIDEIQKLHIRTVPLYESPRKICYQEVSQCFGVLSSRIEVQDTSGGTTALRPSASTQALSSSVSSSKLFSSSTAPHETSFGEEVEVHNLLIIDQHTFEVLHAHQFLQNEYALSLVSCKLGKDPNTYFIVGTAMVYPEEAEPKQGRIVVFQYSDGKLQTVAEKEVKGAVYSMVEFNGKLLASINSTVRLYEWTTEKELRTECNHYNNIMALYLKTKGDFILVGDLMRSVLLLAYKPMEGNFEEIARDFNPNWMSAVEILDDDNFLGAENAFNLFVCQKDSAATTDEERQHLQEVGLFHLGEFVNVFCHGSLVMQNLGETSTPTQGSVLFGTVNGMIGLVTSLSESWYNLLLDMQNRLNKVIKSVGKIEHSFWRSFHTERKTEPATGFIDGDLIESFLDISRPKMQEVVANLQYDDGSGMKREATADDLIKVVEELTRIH

SMILES | IC50 ([1]; read-out: IC50 value) | IKZF1 degradation (IKZF1 (Ikaros)) | GSPT1 degradation (FIG. 1A) (GSPT1; cells treated at 0.3 μM) | IC50 ([1]; read-out: rFP IC50) | IKZF3 degradation (IKZF3 (Aiolos)) | GSPT1 degradation (GSPT1) | IKZF1 degradation (FIG. 1A) (IKZF1 (Ikaros); [2]) | IKZF3 degradation (FIG. 1A) (IKZF3 (Aiolos); [2])
O=C1CCC(N2Cc3ccc(COC(=O)Nc4ccc(N5CCCCC5)nc4)cc3C2=O)C(=O)N1 (stereo not shown) [Compound 15] | < 1100 nM | A |  |  | B (B represents trace degradation at 30 μM (below 20%)) | F (F represents degradation at 0.3 μM (>90%)) |  | 
O=C1CCC(N2Cc3ccc(COC(=O)Nc4ccc(-c5ccccc5)nc4)cc3C2=O)C(=O)N1 (stereo not shown) [Compound 42] |  | A |  | > 1700 nM | A | F (F represents degradation at 0.3 μM (>90%)) |  | 
CC(C)(C)c1ccc(NC(=O)OCc2ccc3c(c2)C(=O)N(C2CCC(=O)NC2=O)C3)cn1 (stereo not shown) [Compound 43] |  | A |  | > 1700 nM | B (B represents trace degradation at 30 μM (below 20%)) | F (F represents degradation at 0.3 μM (>90%)) |  | 

More lines, main results first:

IC50 ([1]; read-out: IC50 value) | IKZF1 degradation (IKZF1 (Ikaros)) | GSPT1 degradation (FIG. 1A) (GSPT1; cells treated at 0.3 μM) | IC50 ([1]; read-out: rFP IC50) | SMILES | IKZF3 degradation (IKZF3 (Aiolos)) | GSPT1 degradation (GSPT1) | IKZF1 degradation (FIG. 1A) (IKZF1 (Ikaros); [2]) | IKZF3 degradation (FIG. 1A) (IKZF3 (Aiolos); [2])
< 1100 nM | A |  |  | Cc1ncc(NC(=O)OCc2ccc3c(c2)C(=O)N(C2CCC(=O)NC2=O)C3)cc1Cl (stereo not shown) [Compound 6] | B (B represents trace degradation at 30 μM (below 20%)) | F (F represents degradation at 0.3 μM (>90%)) |  | 
 | A | complete GSPT1 degradation |  | Cc1ccc(NC(=O)OCc2ccc3c(c2)C(=O)N(C2CCC(=O)NC2=O)C3)cc1Cl (stereo not shown) [Compound 10] | B (B represents trace degradation at 30 μM (below 20%)) | D (D represents degradation at 30 μM (>90%)) | none of the known the substrates IKZF1, IKZF3, SALL4, CK1alpha was degraded | none of the known the substrates IKZF1, IKZF3, SALL4, CK1alpha was degraded
